Source: PubChem BioAssay AID2060891 (Molecular Pharmacology Branch, DTP, NCI, 2025)

Test system: K98450-129-R-PDC complex spheroid growth, percent test/control
Test: Anticancer human tumor K98450-129-R-PDC patient-derived colon adenocarcinoma cell line growth inhibition [RAS]
Conditions: for IC50: curve of first compound; for viability, T/C: stronger effect = lower value; active means viability on the fitted dose curve at most 10% of control; inactive means the rest
In short: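 Multi-cell-type spheroids: tumor cells plus HUVEC endothelial cells and mesenchymal stem cells. RAS-pathway inhibitors were combined with targeted agents, each dosed in half-log steps down from clinical Cmax, or from 10 microM when Cmax was unknown.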
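Further: spheroids exposed to agents for seven days before the viability readout.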
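Wherever viability, T/C is given: luminescence used as a proxy for viable cell amount.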

CCN1CCN(Cc2ccc(Nc3ncc(F)c(-c4cc(F)c5nc(C)n(C(C)C)c5c4)n3)nc2)CC1 + CCn1c(-c2cccnc2C(C)OC)c2c3cc(ccc31)N1CCOC(CC(NC(=O)C(C(C)C)N(C)C(=O)C3(F)CCN(C(=O)C#CC(C)(C)N(C)C)CC3)C(=O)N3CCCC(N3)C(=O)OCC(C)(C)C2)C1
239 nM: IC50 (second compound 0.000949 µM)
< 3.16 nM: IC50 (second compound 0.00949 µM) | IC50 (second compound 0.03 µM) | IC50 (second compound 0.0949 µM) | IC50 (second compound 0.3 µM)
inactive: viability, T/C (second compound 0.000949 µM, first compound 0.00316 µM) 72.8% | viability, T/C (second compound 0.000949 µM, first compound 0.01 µM) 68.7% | viability, T/C (second compound 0.000949 µM, first compound 0.0316 µM) 70.3% | viability, T/C (second compound 0.000949 µM, first compound 0.1 µM) 54.4% | viability, T/C (second compound 0.000949 µM, first compound 0.316 µM) 44.9% | viability, T/C (second compound 0.000949 µM, first compound 1 µM) 52.2% | viability, T/C (second compound 0.003 µM, first compound 0.00316 µM) 60% | viability, T/C (second compound 0.003 µM, first compound 0.01 µM) 52.6% | viability, T/C (second compound 0.003 µM, first compound 0.0316 µM) 48.2% | viability, T/C (second compound 0.003 µM, first compound 0.1 µM) 39.2% | viability, T/C (second compound 0.003 µM, first compound 0.316 µM) 43% | viability, T/C (second compound 0.003 µM, first compound 1 µM) 47.4% | viability, T/C (second compound 0.00949 µM, first compound 0.00316 µM) 49.7% | viability, T/C (second compound 0.00949 µM, first compound 0.01 µM) 41.7% | viability, T/C (second compound 0.00949 µM, first compound 0.0316 µM) 38.9% | viability, T/C (second compound 0.00949 µM, first compound 0.1 µM) 34.5% | viability, T/C (second compound 0.00949 µM, first compound 0.316 µM) 36.6% | viability, T/C (second compound 0.00949 µM, first compound 1 µM) 43.4% | viability, T/C (second compound 0.03 µM, first compound 0.00316 µM) 37.6% | viability, T/C (second compound 0.03 µM, first compound 0.01 µM) 37.6% | viability, T/C (second compound 0.03 µM, first compound 0.0316 µM) 34.3% | viability, T/C (second compound 0.03 µM, first compound 0.1 µM) 35.3% | viability, T/C (second compound 0.03 µM, first compound 0.316 µM) 43.8% | viability, T/C (second compound 0.03 µM, first compound 1 µM) 45.9% | viability, T/C (second compound 0.0949 µM, first compound 0.00316 µM) 39.6% | viability, T/C (second compound 0.0949 µM, first compound 0.01 µM) 34.4% | viability, T/C (second compound 0.0949 µM, first compound 0.0316 µM) 34.5% | viability, T/C (second compound 0.0949 µM, first compound 0.1 µM) 32.1% | viability, T/C (second compound 0.0949 µM, first compound 0.316 µM) 38.9% | viability, T/C (second compound 0.0949 µM, first compound 1 µM) 48.8% | viability, T/C (second compound 0.3 µM, first compound 0.00316 µM) 30.8% | viability, T/C (second compound 0.3 µM, first compound 0.01 µM) 32.1% | viability, T/C (second compound 0.3 µM, first compound 0.0316 µM) 32.1% | viability, T/C (second compound 0.3 µM, first compound 0.1 µM) 28.6% | viability, T/C (second compound 0.3 µM, first compound 0.316 µM) 36.1% | viability, T/C (second compound 0.3 µM, first compound 1 µM) 41.8%
13.2 nM: IC50 (second compound 0.003 µM)

CC1(O)CCCC1n1c(=O)c(C(F)F)cc2cnc(NC3CCN(S(C)(=O)=O)CC3)nc21 (centres undefined) + C=CC(=O)N1CCN(c2nc(OCC3CCCN3C)nc3c(F)c(-c4nc(N)cc(C)c4C(F)(F)F)c(Cl)cc23)C(C)C1
< 31.6 nM: IC50 (second compound 0.316 µM) | IC50 (second compound 1 µM)
229 nM: IC50 (second compound 0.1 µM)
2760 nM: IC50 (second compound 0.01 µM)
8350 nM: IC50 (second compound 0.00316 µM)
696 nM: IC50 (second compound 0.0316 µM)
inactive: viability, T/C (second compound 0.00316 µM, first compound 0.0316 µM) 97.1% | viability, T/C (second compound 0.00316 µM, first compound 0.1 µM) 90.5% | viability, T/C (second compound 0.00316 µM, first compound 0.316 µM) 80.8% | viability, T/C (second compound 0.00316 µM, first compound 1 µM) 71.1% | viability, T/C (second compound 0.00316 µM, first compound 3.16 µM) 56.2% | viability, T/C (second compound 0.00316 µM, first compound 10 µM) 49.1% | viability, T/C (second compound 0.01 µM, first compound 0.0316 µM) 86.1% | viability, T/C (second compound 0.01 µM, first compound 0.1 µM) 81.3% | viability, T/C (second compound 0.01 µM, first compound 0.316 µM) 71.2% | viability, T/C (second compound 0.01 µM, first compound 1 µM) 65.5% | viability, T/C (second compound 0.01 µM, first compound 3.16 µM) 45% | viability, T/C (second compound 0.01 µM, first compound 10 µM) 41.2% | viability, T/C (second compound 0.0316 µM, first compound 0.0316 µM) 74.9% | viability, T/C (second compound 0.0316 µM, first compound 0.1 µM) 70.2% | viability, T/C (second compound 0.0316 µM, first compound 0.316 µM) 57.9% | viability, T/C (second compound 0.0316 µM, first compound 1 µM) 47.5% | viability, T/C (second compound 0.0316 µM, first compound 3.16 µM) 34.4% | viability, T/C (second compound 0.0316 µM, first compound 10 µM) 32% | viability, T/C (second compound 0.1 µM, first compound 0.0316 µM) 55.9% | viability, T/C (second compound 0.1 µM, first compound 0.1 µM) 55.6% | viability, T/C (second compound 0.1 µM, first compound 0.316 µM) 48.2% | viability, T/C (second compound 0.1 µM, first compound 1 µM) 34% | viability, T/C (second compound 0.1 µM, first compound 3.16 µM) 26.9% | viability, T/C (second compound 0.1 µM, first compound 10 µM) 22% | viability, T/C (second compound 0.316 µM, first compound 0.0316 µM) 45.2% | viability, T/C (second compound 0.316 µM, first compound 0.1 µM) 42.1% | viability, T/C (second compound 0.316 µM, first compound 0.316 µM) 33% | viability, T/C (second compound 0.316 µM, first compound 1 µM) 27.6% | viability, T/C (second compound 0.316 µM, first compound 3.16 µM) 21.7% | viability, T/C (second compound 0.316 µM, first compound 10 µM) 18.9% | viability, T/C (second compound 1 µM, first compound 0.0316 µM) 31.7% | viability, T/C (second compound 1 µM, first compound 0.1 µM) 33.7% | viability, T/C (second compound 1 µM, first compound 0.316 µM) 26.6% | viability, T/C (second compound 1 µM, first compound 1 µM) 21% | viability, T/C (second compound 1 µM, first compound 3.16 µM) 19.4% | viability, T/C (second compound 1 µM, first compound 10 µM) 16.1%
